This note sets out measurements from ChEMBL document CHEMBL5729116, “hTRPV1 chemical agents” (2022).

The target in this assay is Transient receptor potential cation channel subfamily V member 1 (Homo sapiens, UniProt Q8NER1). As to the kind of experiment: RTX Competition Binding Assay.: Binding studies with [3H]RTX were carried out as follows. The binding assay mixtures were prepared in 1.5 ml centrifuge tubes and consisted of a fixed concentration (approximately 2 nM) of [3H]RTX (37 Ci/mmol specific activity, PerkinElmer Life Sciences), various concentrations of competing ligands, and […] of membranes from induced CHO-hTRPV1 expressing cells (approximately 1-3×10^6 cells) in Dulbecco's phosphate buffered saline (DPBS, with Ca2+ & Mg2+) for a total volume of 350 μl. The assay mix contained bovine serum albumin at a final concentration of 0.25 mg/ml (Cohn fraction V; Sigma-Aldrich, St. Louis, Mo.). In each set of experiments, nonspecific binding were determined in the presence of 200 nM non-radioactive RTX. The binding reaction was initiated by placing the assay mixture in a 37° C. shaking water bath for 60 minutes (−30 rpm). The assay mixture was then chilled on ice for 2-3 min before adding 100 μl of α1-acid glycoprotein (2 mg/ml; Sigma-Aldrich) and mixed thoroughly. The tubes were kept on ice for an additional 10 min. The bound and free ligands were then separated by centrifugation (12,200 rpm for 15 minutes) in a Beckman Coulter centrifuge Allegra 21R. 200 μl of supernatant was collected for determination of free ligand. The remainder was removed by aspiration.
Transient receptor potential cation channel subfamily V member 1, sequence (Q8NER1 whole entry): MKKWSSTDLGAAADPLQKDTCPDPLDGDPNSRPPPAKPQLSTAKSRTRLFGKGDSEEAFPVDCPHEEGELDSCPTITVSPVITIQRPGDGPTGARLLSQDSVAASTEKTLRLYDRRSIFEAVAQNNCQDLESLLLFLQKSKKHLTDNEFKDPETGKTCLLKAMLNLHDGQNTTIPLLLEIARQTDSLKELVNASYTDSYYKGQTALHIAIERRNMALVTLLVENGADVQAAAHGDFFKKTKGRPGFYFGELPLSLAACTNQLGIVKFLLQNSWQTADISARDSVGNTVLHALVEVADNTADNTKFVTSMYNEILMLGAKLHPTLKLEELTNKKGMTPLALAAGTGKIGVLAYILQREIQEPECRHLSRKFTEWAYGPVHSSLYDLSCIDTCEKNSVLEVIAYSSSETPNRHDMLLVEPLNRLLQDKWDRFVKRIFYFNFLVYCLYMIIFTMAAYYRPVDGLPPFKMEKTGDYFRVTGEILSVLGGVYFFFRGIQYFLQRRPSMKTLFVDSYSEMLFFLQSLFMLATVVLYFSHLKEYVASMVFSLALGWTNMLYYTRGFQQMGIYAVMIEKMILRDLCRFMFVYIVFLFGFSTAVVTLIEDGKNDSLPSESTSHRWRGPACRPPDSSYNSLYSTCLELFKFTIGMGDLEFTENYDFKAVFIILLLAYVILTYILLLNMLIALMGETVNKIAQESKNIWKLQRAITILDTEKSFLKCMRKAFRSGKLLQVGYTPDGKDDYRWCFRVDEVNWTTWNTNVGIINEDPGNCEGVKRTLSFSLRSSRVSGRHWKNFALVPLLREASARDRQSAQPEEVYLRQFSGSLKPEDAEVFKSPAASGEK

As to `O=C(Nc1cccc(C(F)(F)F)c1)Nc1ccc([N+](=O)[O-])cc1Cl`, the Ki amounted to 2570 nM.
